From article PMC7600243, “Live Imaging of Phosphate Levels in Arabidopsis Root Cells Expressing a FRET-Based Phosphate Sensor” (Plants, 2020)

Target: PiBP (Pi binding bacterial periplasmic Binding Protein) of the FLIPPi sensors FLIPPi-30m and FLIPPi-4µ
Conditions: pH 7.0; 20 mM Tris-HCl or MOPS; in planta, externally applied Pi buffer 0-200 mM; inhibitor dose response fit, variable slope

O=P(O)(O)O [Pi, inorganic phosphate]
Kd: 35 mM
